Earlier results on one compound are cited in patent US11058666B2, “Oral administration of melanin for protection against radiation” (priority 2011, dated 2021).

The conditions of the series: after 9 Gy delivered at 1 Gy/min, published data.

Turning to `NCCCNCCSP(=O)(O)O` [amifostine], the survival was 60%.
